Data reported in patent US20240218022A1, “ANTI-VISTA MACROCYCLIC PEPTIDES AND COMPOSITIONS” (BRISTOL-MYERS SQUIBB COMPANY, priority 2022, published 2024).
Positions of bridges follow the written chain, without caps; N, C: chain ends. Non-standard residues stand in square brackets, D forms with d. Residues, ends and D or L forms follow the SMILES beside them. ξ: configuration not given here. 2Nal = N[C@@H](Cc1ccc2ccccc2c1)C(=O)O; NMeIle(3ξ) = CCC(C)[C@H](NC)C(=O)O; Cit = NC(=O)NCCC[C@H](N)C(=O)O; Gly(cPr) = N[C@H](C(=O)O)C1CC1; NMeD = CN[C@@H](CC(=O)O)C(=O)O; NMeN = CN[C@@H](CC(N)=O)C(=O)O; NMeL = CN[C@@H](CC(C)C)C(=O)O; Ahp(2) = CCCCC[C@H](N)C(=O)O; NMeNle = CCCC[C@H](NC)C(=O)O; NHexGly = CCCCCCNCC(=O)O; Nle = CCCC[C@H](N)C(=O)O; Orn = NCCC[C@H](N)C(=O)O

Target: T1, mouse VISTA (mVISTA) (Mus musculus, UniProt Q9D659)
T1 construct: expressed in transfected cells; host or cells: Human embryonic kidney 293T cells
T1 sequence (Q9D659 33-308): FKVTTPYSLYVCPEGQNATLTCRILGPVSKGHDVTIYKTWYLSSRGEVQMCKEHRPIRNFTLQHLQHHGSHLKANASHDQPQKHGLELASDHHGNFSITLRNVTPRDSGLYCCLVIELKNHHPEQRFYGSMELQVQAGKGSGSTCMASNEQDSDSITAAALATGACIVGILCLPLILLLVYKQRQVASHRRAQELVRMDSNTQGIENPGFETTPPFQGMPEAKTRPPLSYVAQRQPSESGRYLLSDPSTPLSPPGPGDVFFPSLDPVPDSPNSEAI
Test: Cell-Based Binding High-Content Assay For mVISTA (HC CBA mVISTA)
Settings: cell-based binding high-content assay, mVISTA; the 15th table; read-out: HC CBA mVISTA IC50
In short: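 This high-content binding assay uses HEK293T cells expressing murine VISTA, measuring displacement of 2 nM biotinylated peptide by fluorescent streptavidin imaging. IC50 values come from four-parameter logistic fitting.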

For `CCCCCCN1CC(=O)N[C@@H](Cc2ccc(O)cc2)C(=O)N[C@@H](CCCC)C(=O)N[C@@H](CC(N)=O)C(=O)N[C@@H](CCCNC(=N)N)C(=O)N[C@@H](CC(C)C)C(=O)N[C@@H](CCCCC)C(=O)N2CCC[C@H]2C(=O)N[C@@H](C(C)C)C(=O)N[C@@H](C2CC2)C(=O)N[C@H](C(=O)NCC(=O)O)CSCC(=O)N[C@@H](Cc2ccc3ccccc3c2)C(=O)N[C@@H](Cc2c[nH]c3ccccc23)C(=O)N[C@@H](CC(=O)O)C1=O` [compound 1232] ({CH2CO}-[2Nal]WD[NHexGly]Y[Nle]NRL[Ahp(2)]PV[Gly(cPr)]CG-OH; thioether N-14), the IC50 was 36 nM.
Compound `CCCCCCN1CC(=O)N[C@@H](Cc2ccc(O)cc2)C(=O)N[C@@H](CCCC)C(=O)N[C@@H](CC(N)=O)C(=O)N[C@@H](CCCNC(N)=O)C(=O)N[C@@H](CC(C)C)C(=O)N[C@@H](CCCCC)C(=O)N2CCC[C@H]2C(=O)N[C@@H](C(C)C)C(=O)N[C@@H](CC(=O)O)C(=O)N[C@H](C(=O)NCC(=O)O)CSCC(=O)N[C@@H](Cc2ccc3ccccc3c2)C(=O)N[C@@H](Cc2c[nH]c3ccccc23)C(=O)N[C@@H](CC(=O)O)C1=O` [compound 1233] ({CH2CO}-[2Nal]WD[NHexGly]Y[Nle]N[Cit]L[Ahp(2)]PVDCG-OH; thioether N-14) has an IC50 of 10.5 nM.
`CCCCCCN1CC(=O)N[C@@H](Cc2ccc(O)cc2)C(=O)N[C@@H](CCCC)C(=O)N[C@@H](CC(=O)O)C(=O)N[C@@H](CCCNC(=N)N)C(=O)N[C@@H](CC(C)C)C(=O)N[C@@H](CCCCC)C(=O)N2CCC[C@H]2C(=O)N[C@@H](C(C)C)C(=O)N[C@@H](CC(=O)O)C(=O)N[C@H](C(=O)N[C@@H](CO)C(N)=O)CSCC(=O)N[C@@H](Cc2ccc3ccccc3c2)C(=O)N[C@@H](Cc2c[nH]c3ccccc23)C(=O)N[C@@H](CC(=O)O)C1=O` [compound 1235] ({CH2CO}-[2Nal]WD[NHexGly]Y[Nle]DRL[Ahp(2)]PVDCS-NH2; thioether N-14) was tested, and the IC50 was 13.4 nM.
`CCCCCCN1CC(=O)N[C@@H](Cc2ccc(O)cc2)C(=O)N[C@@H](CCCC)C(=O)N[C@@H](CC(=O)O)C(=O)N[C@@H](CCCN)C(=O)N[C@@H](CC(C)C)C(=O)N[C@@H](CCCCC)C(=O)N2CCC[C@H]2C(=O)N[C@@H](C(C)C)C(=O)N[C@@H](CC(=O)O)C(=O)N[C@H](C(=O)N[C@@H](CO)C(N)=O)CSCC(=O)N[C@@H](Cc2ccc3ccccc3c2)C(=O)N[C@@H](Cc2c[nH]c3ccccc23)C(=O)N[C@@H](CC(=O)O)C1=O` [compound 1236] ({CH2CO}-[2Nal]WD[NHexGly]Y[Nle]D[Orn]L[Ahp(2)]PVDCS-NH2; thioether N-14) showed an IC50 of 27.7 nM.
With `CCCCCCN1CC(=O)N[C@@H](Cc2ccc(O)cc2)C(=O)N[C@@H](CCCC)C(=O)N[C@@H](CC(N)=O)C(=O)N[C@@H](CCCNC(=N)N)C(=O)N(C)[C@@H](C(C)CC)C(=O)N[C@@H](CCCCC)C(=O)N2CCC[C@H]2C(=O)N[C@@H](C(C)C)C(=O)N[C@@H](CC(=O)O)C(=O)N[C@H](C(=O)NCC(=O)O)CSCC(=O)N[C@@H](Cc2ccc3ccccc3c2)C(=O)N[C@@H](Cc2c[nH]c3ccccc23)C(=O)N[C@@H](CC(=O)O)C1=O` (stereo partly drawn) [compound 1237] ({CH2CO}-[2Nal]WD[NHexGly]Y[Nle]NR[NMeIle(3ξ)][Ahp(2)]PVDCG-OH; thioether N-14) the IC50 was 9.1 nM.
In the case of `CCCCCCN1CC(=O)N[C@@H](Cc2ccc(O)cc2)C(=O)N[C@@H](CCCC)C(=O)N[C@@H](CC(N)=O)C(=O)N[C@@H](CCCNC(=N)N)C(=O)N(C)[C@@H](CC(=O)O)C(=O)N[C@@H](CCCCC)C(=O)N2CCC[C@H]2C(=O)N[C@@H](C(C)C)C(=O)N[C@@H](CC(=O)O)C(=O)N[C@H](C(=O)NCC(=O)O)CSCC(=O)N[C@@H](Cc2ccc3ccccc3c2)C(=O)N[C@@H](Cc2c[nH]c3ccccc23)C(=O)N[C@@H](CC(=O)O)C1=O` [compound 1238] ({CH2CO}-[2Nal]WD[NHexGly]Y[Nle]NR[NMeD][Ahp(2)]PVDCG-OH; thioether N-14), the IC50 is reported as 25.2 nM.
With `CCCCCCN1CC(=O)N[C@@H](Cc2ccc(O)cc2)C(=O)N[C@@H](CCCC)C(=O)N[C@@H](CC(N)=O)C(=O)N[C@@H](CCCNC(=N)N)C(=O)N(C)[C@@H](CC(C)C)C(=O)N[C@@H](CCCCC)C(=O)N2CCC[C@H]2C(=O)N[C@@H](C(C)C)C(=O)N[C@@H](CC(=O)O)C(=O)N[C@H](C(=O)NCC(=O)O)CSCC(=O)N[C@@H](Cc2ccc3ccccc3c2)C(=O)N[C@@H](Cc2c[nH]c3ccccc23)C(=O)N[C@@H](CC(=O)O)C1=O` [compound 1239] ({CH2CO}-[2Nal]WD[NHexGly]Y[Nle]NR[NMeL][Ahp(2)]PVDCG-OH; thioether N-14) the IC50 was 3.2 nM.
Work on `CCCCCCN1CC(=O)N[C@@H](Cc2ccc(O)cc2)C(=O)N[C@@H](CCCC)C(=O)N[C@@H](CC(N)=O)C(=O)N[C@@H](CCCNC(=N)N)C(=O)N(C)[C@@H](CC(C)C)C(=O)N[C@@H](CCCCC)C(=O)N2CCC[C@H]2C(=O)N[C@@H](C(C)C)C(=O)N[C@@H](CC(=O)O)C(=O)N[C@H](C(=O)N[C@@H](CO)C(=O)O)CSCC(=O)N[C@@H](Cc2ccc3ccccc3c2)C(=O)N[C@@H](Cc2c[nH]c3ccccc23)C(=O)N[C@@H](CC(=O)O)C1=O` [compound 1240] ({CH2CO}-[2Nal]WD[NHexGly]Y[Nle]NR[NMeL][Ahp(2)]PVDCS-OH; thioether N-14) yielded an IC50 of 14.4 nM.
In the case of `CCCCCCN1CC(=O)N[C@@H](Cc2ccc(O)cc2)C(=O)N[C@@H](CCCC)C(=O)N[C@@H](CC(N)=O)C(=O)N[C@@H](CCCNC(=N)N)C(=O)N(C)[C@@H](CC(N)=O)C(=O)N[C@@H](CCCCC)C(=O)N2CCC[C@H]2C(=O)N[C@@H](C(C)C)C(=O)N[C@@H](CC(=O)O)C(=O)N[C@H](C(=O)NCC(=O)O)CSCC(=O)N[C@@H](Cc2ccc3ccccc3c2)C(=O)N[C@@H](Cc2c[nH]c3ccccc23)C(=O)N[C@@H](CC(=O)O)C1=O` [compound 1241] ({CH2CO}-[2Nal]WD[NHexGly]Y[Nle]NR[NMeN][Ahp(2)]PVDCG-OH; thioether N-14), the IC50 is reported as 35.1 nM.
In the case of `CCCCCCN1CC(=O)N[C@@H](Cc2ccc(O)cc2)C(=O)N[C@@H](CCCC)C(=O)N[C@@H](CC(=O)O)C(=O)N[C@@H](CCCNC(N)=O)C(=O)N(C)[C@@H](CCCC)C(=O)N[C@@H](CCCCC)C(=O)N2CCC[C@H]2C(=O)N[C@@H](C(C)C)C(=O)N[C@@H](CC(=O)O)C(=O)N[C@H](C(=O)N[C@@H](CC(=O)O)C(N)=O)CSCC(=O)N[C@@H](Cc2ccc3ccccc3c2)C(=O)N[C@@H](Cc2c[nH]c3ccccc23)C(=O)N[C@@H](CC(=O)O)C1=O` [compound 1242] ({CH2CO}-[2Nal]WD[NHexGly]Y[Nle]D[Cit][NMeNle][Ahp(2)]PVDCD-NH2; thioether N-14), the IC50 is reported as 8.9 nM.
`CCCCCCN1CC(=O)N[C@@H](Cc2ccc(O)cc2)C(=O)N[C@@H](CCCC)C(=O)N[C@@H](CC(=O)O)C(=O)N[C@@H](CCCNC(=N)N)C(=O)N(C)[C@@H](CCCC)C(=O)N[C@@H](CCCCC)C(=O)N2CCC[C@H]2C(=O)N[C@@H](C(C)C)C(=O)N[C@@H](CC(=O)O)C(=O)N[C@H](C(=O)N[C@@H](CC(=O)O)C(N)=O)CSCC(=O)N[C@@H](Cc2ccc3ccccc3c2)C(=O)N[C@@H](Cc2c[nH]c3ccccc23)C(=O)N[C@@H](CC(=O)O)C1=O` [compound 1243] ({CH2CO}-[2Nal]WD[NHexGly]Y[Nle]DR[NMeNle][Ahp(2)]PVDCD-NH2; thioether N-14) gave an IC50 of 20.1 nM.
With `CCCCCCN1CC(=O)N[C@@H](Cc2ccc(O)cc2)C(=O)N[C@@H](CCCC)C(=O)N[C@@H](CC(=O)O)C(=O)N[C@@H](CCCN)C(=O)N(C)[C@@H](CCCC)C(=O)N[C@@H](CCCCC)C(=O)N2CCC[C@H]2C(=O)N[C@@H](C(C)C)C(=O)N[C@@H](CC(=O)O)C(=O)N[C@H](C(=O)N[C@@H](CC(=O)O)C(N)=O)CSCC(=O)N[C@@H](Cc2ccc3ccccc3c2)C(=O)N[C@@H](Cc2c[nH]c3ccccc23)C(=O)N[C@@H](CC(=O)O)C1=O` [compound 1244] ({CH2CO}-[2Nal]WD[NHexGly]Y[Nle]D[Orn][NMeNle][Ahp(2)]PVDCD-NH2; thioether N-14) the IC50 was 13.5 nM.
`CCCCCCN1CC(=O)N[C@@H](Cc2ccc(O)cc2)C(=O)N[C@@H](CCCC)C(=O)N[C@@H](CC(N)=O)C(=O)N[C@@H](CCCNC(=N)N)C(=O)N(C)[C@@H](CCCC)C(=O)N[C@@H](CCCCC)C(=O)N2CCC[C@H]2C(=O)N[C@@H](C(C)C)C(=O)N[C@@H](CC(=O)O)C(=O)N[C@H](C(=O)NCC(=O)O)CSCC(=O)N[C@@H](Cc2ccc3ccccc3c2)C(=O)N[C@@H](Cc2c[nH]c3ccccc23)C(=O)N[C@@H](CC(=O)O)C1=O` [compound 1245] ({CH2CO}-[2Nal]WD[NHexGly]Y[Nle]NR[NMeNle][Ahp(2)]PVDCG-OH; thioether N-14) showed an IC50 of 6.2 nM.
`CCCCCCN1CC(=O)N[C@@H](Cc2ccc(O)cc2)C(=O)N[C@@H](CCCC)C(=O)N[C@@H](CC(N)=O)C(=O)N[C@@H](CCCNC(=N)N)C(=O)N(C)[C@@H](CCCC)C(=O)N[C@@H](CCCCC)C(=O)N2CCC[C@H]2C(=O)N[C@@H](C(C)C)C(=O)N[C@@H](CCCNC(=N)N)C(=O)N[C@H](C(=O)NCC(=O)O)CSCC(=O)N[C@@H](Cc2ccc3ccccc3c2)C(=O)N[C@@H](Cc2c[nH]c3ccccc23)C(=O)N[C@@H](CC(=O)O)C1=O` [compound 1246] ({CH2CO}-[2Nal]WD[NHexGly]Y[Nle]NR[NMeNle][Ahp(2)]PVRCG-OH; thioether N-14) gave an IC50 of 25.1 nM.
`CCCCCCN1CC(=O)N[C@@H](Cc2ccc(O)cc2)C(=O)N[C@@H](CCCC)C(=O)N[C@@H](CC(N)=O)C(=O)N[C@@H](CCCNC(=N)N)C(=O)N(C)[C@@H](CCCC)C(=O)N[C@@H](CCCCC)C(=O)N2CCC[C@H]2C(=O)N[C@@H](C(C)C)C(=O)N[C@@H](CO)C(=O)N[C@H](C(=O)NCC(=O)O)CSCC(=O)N[C@@H](Cc2ccc3ccccc3c2)C(=O)N[C@@H](Cc2c[nH]c3ccccc23)C(=O)N[C@@H](CC(=O)O)C1=O` [compound 1247] ({CH2CO}-[2Nal]WD[NHexGly]Y[Nle]NR[NMeNle][Ahp(2)]PVSCG-OH; thioether N-14) gave an IC50 of 35.2 nM.
